Assay results as given in BigSolDB 2.1.

CS(=O)(=O)c1ccc([C@@H](O)[C@@H](CF)NC(=O)C(Cl)Cl)cc1
solubility (mole fraction)
Conditions | 283.15 K | 288.15 K | 293.15 K | 298.15 K | 303.15 K | 308.15 K | 313.15 K | 318.15 K | 323.15 K
in 2-ethylhexanol | 0.000183 | 0.000254 | 0.000319 | 0.000383 | 0.000521 | 0.000635 | 0.000813 | 0.00103 | 0.00129
in ethanol | 0.00151 | 0.00196 | 0.00244 | 0.00309 | 0.00369 | 0.00461 | 0.00562 | 0.00702 | 0.00842
in isobutanol | 0.000293 | 0.000385 | 0.000497 | 0.000613 | 0.000819 | 0.00104 | 0.00137 | 0.0017 | 0.00224
in isopentanol | 0.000487 | 0.000586 | 0.000765 | 0.000959 | 0.00123 | 0.00149 | 0.00191 | 0.00238 | 0.00285
in isopropanol | 0.00061 | 0.00076 | 0.00101 | 0.00133 | 0.00169 | 0.00218 | 0.00278 | 0.00363 | 0.00457
in n-butanol | 0.000512 | 0.000648 | 0.000821 | 0.00112 | 0.0014 | 0.00183 | 0.00236 | 0.00302 | 0.00385
in n-propanol | 0.000974 | 0.00125 | 0.00165 | 0.00215 | 0.00269 | 0.00359 | 0.00437 | 0.00563 | 0.00712
in propionic acid | 0.00027 | 0.000347 | 0.000447 | 0.000562 | 0.00073 | 0.000961 | 0.00123 | 0.0016 | 0.00211
